pIC50: −log10 of the molar value.
Experiments:
TOP I (Topoisomerase I) [1] = biological target: T1, TOP I (Topoisomerase I) (Homo sapiens, UniProt P11387); assay: TOP I mediated supercoiled DNA relaxation assay; assay type: biochemical; settings: primary assay at 25 and/or 50 μM
T1 construct: purchased TopoGEN TG2005H
T1 sequence (P11387 1-765): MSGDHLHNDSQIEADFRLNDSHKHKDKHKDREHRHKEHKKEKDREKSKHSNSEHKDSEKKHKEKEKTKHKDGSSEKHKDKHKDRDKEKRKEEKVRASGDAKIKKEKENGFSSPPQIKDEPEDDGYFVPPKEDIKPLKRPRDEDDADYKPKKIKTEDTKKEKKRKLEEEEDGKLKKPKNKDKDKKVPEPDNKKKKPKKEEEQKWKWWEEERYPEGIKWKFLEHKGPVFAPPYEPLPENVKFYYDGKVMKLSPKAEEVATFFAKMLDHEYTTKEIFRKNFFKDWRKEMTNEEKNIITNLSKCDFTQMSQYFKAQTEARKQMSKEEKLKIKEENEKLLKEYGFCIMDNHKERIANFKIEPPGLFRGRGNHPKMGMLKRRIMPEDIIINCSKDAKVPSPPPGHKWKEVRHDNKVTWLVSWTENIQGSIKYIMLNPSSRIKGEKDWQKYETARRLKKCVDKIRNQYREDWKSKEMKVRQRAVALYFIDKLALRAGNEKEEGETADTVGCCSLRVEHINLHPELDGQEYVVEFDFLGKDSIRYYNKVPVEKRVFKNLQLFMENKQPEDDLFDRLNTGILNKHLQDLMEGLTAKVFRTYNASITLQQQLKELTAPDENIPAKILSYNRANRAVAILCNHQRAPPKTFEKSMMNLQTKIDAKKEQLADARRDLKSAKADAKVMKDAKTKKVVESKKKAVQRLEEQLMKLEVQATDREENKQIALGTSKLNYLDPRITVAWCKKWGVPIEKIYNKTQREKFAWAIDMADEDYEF
Procedure: According to the cell cytotoxicity, compounds 5, 7, 8, 16, 19, N2, N7, N8, N9, N14-N19, and N25 were also selected for primary TOP I and II activities assays at 25 and/or 50 μM (FIG. 2-4).

SR = assay type: cell-based; settings: SR
HOP-92 = assay type: cell-based; settings: HOP-92, five dose
HCC-2998 = assay type: cell-based; settings: HCC-2998
HCT-116 = assay type: cell-based; settings: HCT-116
HCT-15 = assay type: cell-based; settings: HCT-15
SW-620 = assay type: cell-based; settings: SW-620
SF-295 = assay type: cell-based; settings: SF-295
SF-539 = assay type: cell-based; settings: SF-539
M14 = assay type: cell-based; settings: M14
SK-MEL-2 = assay type: cell-based; settings: SK-Mel-2, five dose
UACC-257 = assay type: cell-based; settings: UACC-257
IGROV1 = assay type: cell-based; settings: IGROV1
OVCAR-3 = assay type: cell-based; settings: OVCAR-3; 10^−5 molar
OVCAR-4 = assay type: cell-based; settings: OVCAR-4
NCI/ADR-RES = assay type: cell-based; settings: NCI/ADR-RES
ACHN = assay type: cell-based; settings: ACHN
CAKI-1 = assay type: cell-based; settings: CAKI-1
SN12C = assay type: cell-based; settings: SN12C
T-47D = assay type: cell-based; settings: T-47D
MDA-MB-486 = assay type: cell-based; settings: MDA-MB-486
TOP I (Topoisomerase I) [2] = biological target: T1, TOP I (Topoisomerase I); assay: TOP I mediated supercoiled DNA relaxation assay; assay type: biochemical; settings: five different concentrations; TopoGEN TG2005H, TG-2000H-1
[3] = Homo sapiens, five dose, read-out: LC50 (the source's name)

Compound: O=c1c2cc(Cl)ccc2sc2c(NCc3ccccc3)nc3ccccc3c12 [Compound N25, 6-(Benzylamino)-10-chloro-12H-thiochromeno[2,3-c]quinolin-12-one]
- inhibitory effect in TOP I activity assay compared with CPT (TOP I (Topoisomerase I) [1]): more potent inhibitory effects than CPT
- GI50 (SR; Homo sapiens, five dose): > 100 µM
- LC50 (50% lethal concentration) (SR; Homo sapiens, five dose): > 100 µM
- Growth percent (SR; 10^−5 molar): 85.46%
- TGI (SR; five dose): >100 µM
- TGI (HOP-92): 7.53 µM
- GI50 (HOP-92; Homo sapiens): 1.75 µM
- LC50 (HOP-92; Homo sapiens): 53.6 µM
- Growth percent (HCC-2998; 10^−5 molar): 95.77%
- TGI (HCC-2998; five dose): >100 µM
- GI50 (HCC-2998; Homo sapiens, five dose): > 100 µM
- LC50 (HCC-2998; Homo sapiens, five dose): > 100 µM
- Growth percent (HCT-116; 10^−5 molar): 66.87%
- TGI (HCT-116; five dose): >100 µM
- GI50 (HCT-116; Homo sapiens, five dose): 5.59 µM
- LC50 (concentration killing 50% of cells) (HCT-116; Homo sapiens, five dose): > 100 µM
- Growth percent (HCT-15; 10^−5 molar): 71.76%
- TGI (HCT-15; five dose): >100 µM
- GI50 (HCT-15; Homo sapiens, five dose): 8.75 µM
- LC50 (HCT-15; Homo sapiens, five dose): > 100 µM
- LC50 (SW-620; Homo sapiens, five dose): > 100 µM
- Growth percent (SW-620; 10^−5 molar): 78.97%
- TGI (SW-620; five dose): >100 µM
- GI50 (SF-295; Homo sapiens, five dose): 3.5 µM
- LC50 (SF-295; Homo sapiens, five dose): > 100 µM
- Growth percent (SF-295; 10^−5 molar): 74.33%
- TGI (SF-295; five dose): 16.50 µM
- GI50 (SF-539; Homo sapiens, five dose): 4.49 µM
- LC50 (SF-539; Homo sapiens, five dose): > 100 µM
- Growth percent (SF-539; 10^−5 molar): 80.59%
- TGI (SF-539; five dose): 46.40 µM
- GI50 (M14; Homo sapiens, five dose): > 100 µM
- LC50 (M14; Homo sapiens, five dose): > 100 µM
- Growth percent (M14; 10^−5 molar): 87.29%
- TGI (M14; five dose): >100 µM
- GI50 (SK-MEL-2; Homo sapiens): 10.6 µM
- LC50 (SK-MEL-2; Homo sapiens): 96.5 µM
- TGI (SK-MEL-2): 31.90 µM
- GI50 (UACC-257; Homo sapiens, five dose): > 100 µM
- CC50 (UACC-257; [3]): > 100 µM
- Growth percent (UACC-257; 10^−5 molar): 83.24%
- TGI (UACC-257; five dose): >100 µM
- GI50 (IGROV1; Homo sapiens, IGROV-1, five dose): 4.64 µM
- CC50 (IGROV1; Homo sapiens, IGROV-1, five dose, read-out: LC50 (the source's name)): > 100 µM
- Growth percent (IGROV1; 10^−5 molar): 53.42%
- TGI (IGROV1; five dose): >100 µM
- Growth percent (OVCAR-3): 76.59%
- GI50 (OVCAR-4; Homo sapiens, five dose): 15 µM
- Growth percent (OVCAR-4; 10^−5 molar): 27.24%
- TGI (OVCAR-4; five dose): 3.74 µM
- GI50 (NCI/ADR-RES; Homo sapiens, five dose): 43 µM
- CC50 (NCI/ADR-RES; [3]): > 100 µM
- Growth percent (NCI/ADR-RES; 10^−5 molar): 77.36%
- TGI (NCI/ADR-RES; five dose): >100 µM
- Growth percent (ACHN; 10^−5 molar): 51.82%
- TGI (ACHN; five dose): >100 µM
- GI50 (ACHN; Homo sapiens, five dose): 4.02 µM
- CC50 (ACHN; [3]): > 100 µM
- Growth percent (CAKI-1; 10^−5 molar): 80.38%
- TGI (CAKI-1; five dose): >100 µM
- GI50 (CAKI-1; Homo sapiens, five dose): 6.07 µM
- CC50 (CAKI-1; [3]): > 100 µM
- GI50 (SN12C; Homo sapiens, five dose): 24.9 µM
- CC50 (SN12C; [3]): > 100 µM
- Growth percent (SN12C; 10^−5 molar): 87.80%
- TGI (SN12C; five dose): >100 µM
- GI50 (T-47D; Homo sapiens, T47D, five dose): 1.26 µM
- CC50 (T-47D; Homo sapiens, T47D, five dose, read-out: LC50 (the source's name)): > 100 µM
- Growth percent (T-47D; 10^−5 molar): 38.08%
- TGI (T-47D; five dose): 7.11 µM
- GI50 (MDA-MB-486; 60 cell, five dose): 0.03 µM
- CC50 (MDA-MB-486; 60 cell, five dose, read-out: LC50 (the source's name)): 63.1 µM
- Growth percent (MDA-MB-486; 10^−5 molar): −9.83%
- TGI (MDA-MB-486; five dose): 0.66 µM
- pIC50 (TOP I (Topoisomerase I) [2]): ~4.60

Reference: patent publication US8927717B1, “Thiochromeno[2,3-c]quinolin-12-one derivatives, preparation method and application thereof” (National Defense Medical Center, priority 2014, dated 2015)
